According to patent publication US8618169B2, “Derivatives of N-phenylanthranilic acid and 2-benzimidazolone as potassium channel and/or neuron activity modulators” (Ramot at Tel-Aviv University Ltd., priority 2002, dated 2013):
“And” between values parts separate entries of the source, which are not always exact repeats. Equal values may be shown once.

Tests used:
KCNQ2/3 channels = target: T1, KCNQ2/3 channels (Homo sapiens, UniProt O43525+O43526); assay: KCNQ2/3 current in transfected CHO cells, whole-cell patch-clamp; assay type: cell-based
T1 construct: expressed in transfected cells; host or cells: CHO cells

rat cortical neurons = assay: Evoked and spontaneous action potential activity of cultured rat cortical neurons, current-clamp; assay type: cell-based
M-current = target: T2, M-current (Rattus norvegicus, UniProt O88943+O88944); assay: Native M-current of cultured rat cortical neurons, voltage-clamp; assay type: cell-based
T2 construct: the native M-current from pyramidal-like neurons was recorded; endogenous in cells; host or cells: primary cortical neurons from Sprague Dawley rat embryos (E18)

[1] = system: electroshock-induced seizures; assay: Maximal electroshock seizure (MES) test in ICR mice; assay type: in vivo
Procedure: All animals were treated in accordance with the Guide for the Care and Use of Laboratory Animals as adopted and promulgated by the U.S. National Institutes of Health. The procedures followed for experimentation and maintenance of the animals were approved by the animal research ethics committee of Tel Aviv University and in accordance with the Guide for the Care and Use of Laboratory Animals (1996. National Academy of Sciences, Washington D.C). […] electroshock were induced in adult mice by means of two transcorneal electrodes delivering an alternative current of 50 mA at 60 Hz for 0.2 sec using rodent shocker (Hugo Sachs Electronik, type 221). […] The tested compounds were dissolved in 0.9% saline were administered intraperitoneally either 30 minutes or 2 hours before the electroshock was performed. Animals failing to show tonic hind limb extension were scored as protected and were expressed in percentage.
Five groups of 10 ICR mice each received intraperitoneally saline (control) or meclofenamic acid (Compound 1) at 25 mg/kg, 50 mg/kg, 100 mg/kg and 150 mg/kg and were subjected 30 minutes later to an electric shock (50 mA, 0.2 second duration, 60 Hz).
In view of the strong depressing activity of Compound 6 on cortical neurons, the anticonvulsant activity in mice subjected to seizures produced by electroshock was examined, using the MES test described above. Compound 6 dissolved in saline was injected intraperitoneally (in a volume of 10 ml/kg) at doses ranging from 6 mg/kg to 20 mg/kg to ICR adult mice and its anticonvulsant activity was compared with saline. Twenty minutes after drug administration, seizures were produced by electroshock (50 mA, 0.2 second duration, 60 Hz).

CA1 pyramidal neurons = assay: Bursting and spike ADP of CA1 pyramidal neurons in rat hippocampal slices, current-clamp; assay type: cell-based
Procedure: Using selective blockers and openers, it was recently shown that M-channels critically modulate the firing pattern of pyramidal hippocampal neurons by controlling the strength, duration and escalation into bursts of spike after depolarization (Yue and Yaari J. Neurosci., 24(19):4614-24, 2004).
To evaluate the effect of Compound 6 on the spike ADP, a brief depolarizing current pulse was injected to the neurons to elicit a solitary spike.

KCNQ2/Q3 = KCNQ2/Q3 (Homo sapiens, UniProt O43525+O43526); assay: KCNQ2/Q3 current in Xenopus oocytes, two-electrode voltage-clamp; assay type: cell-based; design: expressed in transfected cells; host or cells: Xenopus oocytes (cRNA microinjection); conditions: for increase of KCNQ2/Q3 currents: at −40 mV
Procedure: Current measurements in Xenopus oocytes were performed as described in the art [Peretz et al. J. Physiol 545:751-766 (2002)]. Briefly, two-electrode voltage-clamp measurements were performed 3-5 days following cRNA microinjection into oocytes. Oocytes were bathed in a modified ND96 solution containing (in mM): 96 NaCl, 2 KCl, 1 MgCl2, 0.1 CaCl2 and 5 HEPES titrated to pH=7.4 with NaOH. Whole-cell currents were recorded at room temperature (20° C.-22° C.) using a GeneClamp 500 amplifier (Axon Instruments, Foster City, Calif., USA). Glass microelectrodes (A-M Systems, Inc., Carlsborg, Wis., USA) were filled with 3M KCl and had tip resistances of 0.5-1.5 MΩ. Stimulation of the preparation, data acquisition and analyses were performed using the pCLAMP 6.02 software (Axon Instruments, Foster City, Calif., USA) and a 586 personal computer Pentium 4 interfaced with a Digidata 1200 interface (Axon Instruments, Foster City, Calif., USA). Current signals were filtered at 0.5 kHz and digitized at 2 kHz.
Data analysis was performed using the Clampfit program (pClamp 8.1, Axon Instruments, Foster City, Calif., USA), Microsoft Excel 98 (Microsoft Corp., Redmond, Wash., USA), Axograph 4.6 (Axon Instruments, Foster City, Calif., USA) and Prism 2.0 (GraphPad, San Diego, Calif., USA). Leak subtraction was performed off-line, using the Clampfit program of the pClamp 8.1 software. To analyze the KCNQ2/3 channel deactivation, a single exponential fit was applied to the tail currents. Chord conductance (G) was calculated by using the equation: G=I/(V−Vrev) where I corresponds to the current amplitude measured at the end of the pulse and Vrev, the calculated reversal potential assumed to be −90 mV in CHO cells and −98 mV in Xenopus oocytes. G was estimated at various test voltages V and then, normalized to a maximal conductance value, Gmax, calculated at +40 mV. Activation curves were fitted by a Boltzmann distribution: G/Gmax=1/{1+exp[(V50−V)/s]} where V50 is the voltage at which the current is half-activated and s is the slope factor. All data were expressed as mean±SEM. Statistically significant differences were assessed by Student's t-test.
Data are expressed as mean±SEM of 5-8 separate experiments.

KCNQ1/KCNE1 = target: T3, KCNQ1/KCNE1 (Homo sapiens, UniProt P51787); assay: KCNQ1/KCNE1 (IKS) current amplitude; assay type: cell-based; conditions: 50 μM, test potentials −50 to 0 mV, data not shown
T3 construct: expressed in transfected cells; host or cells: Xenopus oocytes (stated for Compound 6)
Procedure: Briefly, two-electrode voltage-clamp measurements were performed 3-5 days following cRNA microinjection into oocytes. Oocytes were bathed in a modified ND96 solution containing (in mM): 96 NaCl, 2 KCl, 1 MgCl2, 0.1 CaCl2 and 5 HEPES titrated to pH=7.4 with NaOH. Whole-cell currents were recorded at room temperature (20° C.-22° C.) using a GeneClamp 500 amplifier (Axon Instruments, Foster City, Calif., USA). […] Current signals were filtered at 0.5 kHz and digitized at 2 kHz.
The current amplitude of the various channels was measured from a −80 mV holding potential.

[2] = 100 μM, prepulse −20 mV, tail −60 mV

O=C(Cc1ccccc1Nc1c(Cl)cccc1Cl)NCCOCCO [Compound 6]
leftward shift in the voltage-dependence of KCNQ2/3 activation (KCNQ2/3 channels; 25 μM, CHO cells): about 13 mV | V50 of KCNQ2/3 activation with compound (KCNQ2/3 channels; 25 μM, CHO cells, control −30.9±4.1 mV): −43.45±2.3 mV | increase of the current amplitude (KCNQ2/3 channels; 25 μM, train protocol, stepped to −50 mV): up to 220% | effect on deactivation kinetics of KCNQ2/3 channels (KCNQ2/3 channels; CHO cells): slowed down | EC50 (KCNQ2/3 channels; at −50 mV, CHO cells, read-out: EC50 of concentration-dependent current increase): 7 ± 1 µM | effect on evoked and spontaneous cortical neuron activity (rat cortical neurons): depress | effect on spontaneous action potentials (rat cortical neurons; 5 μM-20 μM, within less than 2 minutes): profound depression of spontaneous action potentials | effect on number of evoked action potentials (rat cortical neurons; 10 μM): reduced drastically and reversibly | negative shift in the threshold of M-current activation (M-current; cortical neurons, from −50 mV to −70 mV): approximately 20 mV | ED50 ([1]; Mus musculus, intraperitoneal 6-20 mg/kg, twenty minutes before electroshock, read-out: ED50 of protective effect against seizures): 8.7 mg/kg | effect on burst spiking (CA1 pyramidal neurons; 25 μM, long suprathreshold depolarizing current pulses): suppression of the burst | ADP size with compound (CA1 pyramidal neurons; solitary spike, control 193.8±49.7 mV msec): 117.1±40.6 mV msec | increase of KCNQ2/Q3 currents (KCNQ2/Q3; 25 μM): 1.95 fold

Cc1ccc(Cl)c(Nc2ccccc2C(=O)O)c1Cl [Compound 1, Meclofenamic acid]
V50 of KCNQ2/3 current activation with compound (KCNQ2/3 channels; 100 μM, CHO cells): −42.34±2.08 mV | leftward shift in the voltage-dependence of KCNQ2/3 current activation (KCNQ2/3 channels; 100 μM, CHO cells): 22.7 mV | slope parameter s of the Boltzmann fitting curve (KCNQ2/3 channels; 100 μM, CHO cells): −10.50±0.93 mV/e fold | increase of the time constant for deactivation (KCNQ2/3 channels; [2]): about 2 fold | time constant for deactivation τdeact with compound (KCNQ2/3 channels; [2]): 167.5 ± 11.6 ms | effect on KCNQ2/3 activation kinetics (KCNQ2/3 channels; CHO cells): did not affect | voltage threshold of KCNQ2/3 current activation upon exposure (KCNQ2/3 channels; CHO cells, control −50 mV): about −60 mV | increase of KCNQ2/3 current amplitude (KCNQ2/3 channels; at −30 mV, CHO cells): > 2.5 fold | increase of KCNQ2/3 current amplitude (KCNQ2/3 channels; at −40 mV, CHO cells): > 5 fold | increase of KCNQ2/3 current amplitude (KCNQ2/3 channels; at −50 mV, CHO cells): more than 10 fold | increase in KCNQ2/3 current amplitude (KCNQ2/3 channels; potentials around −60/−50 mV): more than 10 fold | increase of the current amplitude (KCNQ2/3 channels; train protocol, cells stepped to −20 mV): up to 72% | KCNQ2/3 current amplitude with compound (KCNQ2/3 channels; train protocol, stepped to −20 mV, control 844±130 pA): 1451±164 pA | effect on spontaneous spiking activity (rat cortical neurons; 10 μM): completely but reversibly inhibited | number of evoked action potentials with compound (rat cortical neurons; 10 μM, 100 pA depolarizing current for 800 mseconds, control 20±1): 1±1 | effect on evoked potentials (rat cortical neurons; 5-20 μM): reversibly inhibited | enhancement of the linopirdine-sensitive outward current (M-current; 10 μM, step from −80 mV to −40 mV): 465±134 percents of control | effect on heteromeric KCNQ1/KCNE1 currents (KCNQ1/KCNE1): not enhanced | % Protection ([1]; 50 mg/kg i.p., 30 minutes before electroshock): 17% and 17 (6) % | % Protection ([1]; 100 mg/kg i.p., 30 minutes before electroshock): 75 (5) % | % Protection ([1]; 100 mg/kg i.p., 2 hours before electroshock): 25 (4) % | adverse effect in mice ([1]; 150 mg/kg intraperitoneally): sedation | % Protection ([1]; 200 mg/kg i.p., 30 minutes before electroshock): toxic | % Protection ([1]; 200 mg/kg i.p., 2 hours before electroshock): toxic | mice protected from electroshock ([1]; Example 9: 50 mg/kg intraperitoneally, 30 minutes before shock): 50% | protection from electroshock seizures ([1]; Example 9: 100 mg/kg intraperitoneally, 30 minutes before shock): fully prevented seizures | toxic effects at high doses ([1]; mouse, in vivo): pro-convulsive toxic effects and hyperactivity | leftward shift in the voltage-dependence of KCNQ2/Q3 current activation (KCNQ2/Q3; 25 μM, Xenopus oocytes): −15.9 mV | V50 of KCNQ2/Q3 current activation with compound (KCNQ2/Q3; 25 μM, Xenopus oocytes, control −28.6±2.9 mV): −44.5±3.1 mV | increase of KCNQ2/Q3 currents (KCNQ2/Q3; 25 μM): 1.75 fold | increase in KCNQ2/Q3 current amplitude (KCNQ2/Q3; 25 μM, oocyte membrane stepped from −80 mV to −40 mV): 53±8% | oocyte resting membrane potential after compound (KCNQ2/Q3; increasing concentrations, from −56±2 mV): −72±3 mV | EC50 (KCNQ2/Q3; increasing concentrations, read-out: EC50 of hyperpolarization of the oocyte resting membrane potential): 11.7 ± 5.2 µM
